Values joined by “and” are separate entries in the source; they are usually repeats but may differ in a detail not shown here. Equal values may be shown once.
Experiment: Shake-flask solubility with spectrophotometric measurement in aqueous DES mixtures
Type: physicochemical
Settings: for Increase in the solubility compared to the neat DES: 25 °C
Procedure: In order to determine the solubility of the three studied phenolic acids in deep eutectic solvents, a very well-established shake-flask method coupled with spectrophotometric measurements was utilized. The initial procedure involved the preparation of various DESs, which was conducted by mixing their HBA and HBD counterparts in a glass vessel and heating the composition until the formation of a transparent, uniform liquid. […] For additional measurements, the DESs were mixed with water in varying proportions, creating aqueous DES systems. Saturated solutions of CAF, SYR, and COU were obtained by adding excess amounts of these compounds to test tubes containing either a neat deep eutectic solvent or its aqueous solution. Such samples were placed in the Orbital Shaker Incubator ES-20/60 from Biosan (Riga, Latvia) and heated for 24 h at 25 °C, 30 °C, 35 °C, and 40 °C (±0.1 °C) with simultaneous mixing at 60 rpm. Before measurements, the samples were filtered using a PTFE syringe filter from Qpore (Dallas, TX, USA) with a 0.22 μm pore size. In order to avoid possible precipitation of the saturated solutions at decreased temperatures, the test tubes, syringes, pipette tips, and filters were kept at a temperature identical to that of the samples. The spectrophotometric measurements required the preparation of calibration curves for the three APIs. This involved the preparation of a stock solution of each compound in methanol, which was later successfully diluted, and the obtained solutions of varying concentrations were measured using an A360 spectrophotometer from AOE Instruments (Shanghai, China). The wavelength range was set to 200-500 nm, and the resolution was 1 nm. The analytical wavelengths were determined to be 324 nm for caffeic acid, 273 nm for syringic acid, and 308 nm for p-coumaric acid. The final regression equations, obtained after averaging three distinct sets of measurements, are collected in Table 2 together with determination coefficients and limits of detection (LOD) and quantification (LOQ) for the calibration curves. The measurements of the samples were conducted with the same spectrophotometer and identical settings. Methanol was used for the dilution of the samples so that they could remain within the linearity range of the method. Complete spectra of the samples were recorded, but for the solubility determination, the absorbance values at a specific analytical wavelength were considered. These values were combined with the corresponding regression equations of the calibration curves and served for the calculation of the concentration of the three phenolic acids in the studied samples. The densities of such samples were also measured, and for this task 1 mL of each sample was weighed to a precision of 0.1 mg using an AS 110 R2.PLUS analytical balance from […] (Radom, Poland). The obtained densities enabled the calculation of mole fractions of CAF, SYR, and COU dissolved in the studied DESs. For each considered system, three distinct measurements were conducted, and the results were averaged.

O=C(O)C=Cc1ccc(O)cc1 [p-coumaric acid, 4-hydroxycinnamic acid]
Mole fraction solubility (Bet – GLY 1:2 + water, x*DES 0.9, 30°C): 0.1149±0.0011 mole fraction | Mole fraction solubility (Bet – GLY 1:2 + water, x*DES 0.9, 35°C): 0.1464±0.0025 mole fraction | Mole fraction solubility (Bet – GLY 1:2 + water, x*DES 0.9, 40°C): 0.1934±0.0021 mole fraction | Mole fraction solubility (Bet – GLY 1:2, x*DES 1.0 (neat DES), 25°C): 0.0898±0.0003 mole fraction | Mole fraction solubility (Bet – GLY 1:2, x*DES 1.0 (neat DES), 30°C): 0.1090±0.0010 mole fraction | Mole fraction solubility (Bet – GLY 1:2, x*DES 1.0 (neat DES), 35°C): 0.1389±0.0009 mole fraction | Mole fraction solubility (Bet – GLY 1:2, x*DES 1.0 (neat DES), 40°C): 0.1842±0.0017 mole fraction | Increase in the solubility compared to the neat DES (Bet-GLY 1:2, x*DES = 0.9 (xwater = 0.1)): 3% | Mole fraction solubility (ChCl – TEG 1:2 + water, x*DES 0.1, 25°C): 0.0131±0.0002 mole fraction | Mole fraction solubility (ChCl – TEG 1:2 + water, x*DES 0.1, 30°C): 0.0168±0.0002 mole fraction | Mole fraction solubility (ChCl – TEG 1:2 + water, x*DES 0.1, 35°C): 0.0216±0.0002 mole fraction | Mole fraction solubility (ChCl – TEG 1:2 + water, x*DES 0.1, 40°C): 0.0287±0.0003 mole fraction | Mole fraction solubility (ChCl – TEG 1:2 + water, x*DES 0.2, 25°C): 0.0283±0.0002 mole fraction | Mole fraction solubility (ChCl – TEG 1:2 + water, x*DES 0.2, 30°C): 0.0357±0.0002 mole fraction | Mole fraction solubility (ChCl – TEG 1:2 + water, x*DES 0.2, 35°C): 0.0459±0.0004 mole fraction | Mole fraction solubility (ChCl – TEG 1:2 + water, x*DES 0.2, 40°C): 0.0604±0.0004 mole fraction | Mole fraction solubility (ChCl – TEG 1:2 + water, x*DES 0.3, 25°C): 0.0412±0.0004 mole fraction | Mole fraction solubility (ChCl – TEG 1:2 + water, x*DES 0.3, 30°C): 0.0506±0.0006 mole fraction | Mole fraction solubility (ChCl – TEG 1:2 + water, x*DES 0.3, 35°C): 0.0649±0.0005 mole fraction | Mole fraction solubility (ChCl – TEG 1:2 + water, x*DES 0.3, 40°C): 0.0862±0.0009 mole fraction | Mole fraction solubility (ChCl – TEG 1:2 + water, x*DES 0.4, 25°C): 0.0512±0.0003 mole fraction | Mole fraction solubility (ChCl – TEG 1:2 + water, x*DES 0.4, 30°C): 0.0664±0.0007 mole fraction | Mole fraction solubility (ChCl – TEG 1:2 + water, x*DES 0.4, 35°C): 0.0861±0.0005 mole fraction | Mole fraction solubility (ChCl – TEG 1:2 + water, x*DES 0.4, 40°C): 0.1133±0.0008 mole fraction | Mole fraction solubility (ChCl – TEG 1:2 + water, x*DES 0.5, 25°C): 0.0632±0.0004 mole fraction | Mole fraction solubility (ChCl – TEG 1:2 + water, x*DES 0.5, 30°C): 0.0790±0.0006 mole fraction | Mole fraction solubility (ChCl – TEG 1:2 + water, x*DES 0.5, 35°C): 0.1033±0.0010 mole fraction | Mole fraction solubility (ChCl – TEG 1:2 + water, x*DES 0.5, 40°C): 0.1413±0.0012 mole fraction | Mole fraction solubility (ChCl – TEG 1:2 + water, x*DES 0.6, 25°C): 0.0774±0.0005 mole fraction | Mole fraction solubility (ChCl – TEG 1:2 + water, x*DES 0.6, 30°C): 0.0946±0.0004 mole fraction | Mole fraction solubility (ChCl – TEG 1:2 + water, x*DES 0.6, 35°C): 0.1258±0.0012 mole fraction | Mole fraction solubility (ChCl – TEG 1:2 + water, x*DES 0.6, 40°C): 0.1692±0.0013 mole fraction | Mole fraction solubility (ChCl – TEG 1:2 + water, x*DES 0.7, 25°C): 0.0885±0.0008 mole fraction | Mole fraction solubility (ChCl – TEG 1:2 + water, x*DES 0.7, 30°C): 0.1119±0.0007 mole fraction | Mole fraction solubility (ChCl – TEG 1:2 + water, x*DES 0.7, 35°C): 0.1523±0.0007 mole fraction | Mole fraction solubility (ChCl – TEG 1:2 + water, x*DES 0.7, 40°C): 0.2060±0.0014 mole fraction | Mole fraction solubility (ChCl – TEG 1:2 + water, x*DES 0.8, 25°C): 0.1016±0.0009 mole fraction | Mole fraction solubility (ChCl – TEG 1:2 + water, x*DES 0.8, 30°C): 0.1348±0.0012 mole fraction | Mole fraction solubility (ChCl – TEG 1:2 + water, x*DES 0.8, 35°C): 0.1803±0.0006 mole fraction | Mole fraction solubility (ChCl – TEG 1:2 + water, x*DES 0.8, 40°C): 0.2401±0.0023 mole fraction | Mole fraction solubility (ChCl – TEG 1:2 + water, x*DES 0.9, 25°C): 0.1054 mole fraction and 0.1054±0.0008 mole fraction | Mole fraction solubility (ChCl – TEG 1:2 + water, x*DES 0.9, 30°C): 0.1368±0.0008 mole fraction | Mole fraction solubility (ChCl – TEG 1:2 + water, x*DES 0.9, 35°C): 0.1857±0.0007 mole fraction | Mole fraction solubility (ChCl – TEG 1:2 + water, x*DES 0.9, 40°C): 0.2507±0.0018 mole fraction | Mole fraction solubility (ChCl – TEG 1:2, x*DES 1.0 (neat DES), 25°C): 0.0997±0.0009 mole fraction | Mole fraction solubility (ChCl – TEG 1:2, x*DES 1.0 (neat DES), 30°C): 0.1304±0.0012 mole fraction | Mole fraction solubility (ChCl – TEG 1:2, x*DES 1.0 (neat DES), 35°C): 0.1773±0.0014 mole fraction | Mole fraction solubility (ChCl – TEG 1:2, x*DES 1.0 (neat DES), 40°C): 0.2433±0.0022 mole fraction | Increase in the solubility compared to the neat DES (ChCl-TEG 1:2, x*DES = 0.9 (xwater = 0.1)): 6% | Solubility increase between 25 °C and 40 °C (neat DES (x*DES = 1.0) involving betaine (Bet-GLY 1:2)): 205% | Solubility increase between 25 °C and 40 °C (neat DES (x*DES = 1.0) with choline chloride (ChCl-TEG 1:2)): 244%

Source: paper PMC12564265, “Navigating the Deep Eutectic Solvent Landscape: Experimental and Machine Learning Solubility Explorations of Syringic, p-Coumaric, and Caffeic Acids” (International Journal of Molecular Sciences, 2025)
